In patent US8940774B2, “Tris-Quaternary Ammonium Salts and Methods for Modulating Neuronal Nicotinic Acetylcholine Receptors” (University of Kentucky Research Foundation, priority 2005, dated 2015):

How the values were obtained:
[1] = target: T1, α7 nicotinic receptor subtype expressed in Xenopus oocytes (Rattus norvegicus, UniProt Q05941); assay: Inhibition of ACh evoked current through nicotinic receptors expressed in Xenopus oocytes (α7); format: cell-based; settings: co-application with acetylcholine; compared with α4β2, α3β2, α3β4; FIGS. 1-3
T1 construct: expressed in transfected cells; host or cells: Xenopus laevis oocytes injected with subunit cRNA
T1 sequence (Q05941 23-502): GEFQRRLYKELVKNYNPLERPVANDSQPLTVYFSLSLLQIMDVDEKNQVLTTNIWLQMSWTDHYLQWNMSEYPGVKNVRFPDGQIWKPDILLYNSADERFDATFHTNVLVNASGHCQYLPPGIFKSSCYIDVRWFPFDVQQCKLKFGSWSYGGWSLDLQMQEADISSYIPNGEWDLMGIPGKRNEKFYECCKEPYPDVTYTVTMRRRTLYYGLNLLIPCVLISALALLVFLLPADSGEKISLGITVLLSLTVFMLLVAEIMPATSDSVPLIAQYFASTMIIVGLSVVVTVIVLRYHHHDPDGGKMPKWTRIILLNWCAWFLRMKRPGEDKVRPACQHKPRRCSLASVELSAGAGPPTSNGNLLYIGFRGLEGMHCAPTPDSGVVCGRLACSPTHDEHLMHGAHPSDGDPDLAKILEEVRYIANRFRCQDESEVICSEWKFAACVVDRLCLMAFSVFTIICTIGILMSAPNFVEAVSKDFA
Description: Rat nicotinic receptor cDNAs clones were linearized and purified, and RNA transcripts were prepared in vitro using the appropriate mMessage mMachine kit. Mature (>9 cm) female Xenopus laevis African toads (Nasco, Ft. Atkinson, Wis.), housed in the Division of Lab Animal Resources at the University of Florida were used as a source of oocytes. Prior to surgery, frogs were anesthetized by placing the animal in a 1.5 g/L solution of MS222 for 30 minutes. Oocytes were removed from an incision made in the abdomen. In order to remove the follicular cell layer, harvested oocytes were treated with 1.25 mg/mL collagenase for 2 hours at room temperature in calcium-free Barth's solution (88 mM NaCl, 1 mM KCl, 2.38 mM NaHCO3, 0.82 mM MgSO4, 15 mM HEPES, pH 7.6, 0.1 mg/mL gentamicin sulfate). Subsequently, stage 5 oocytes were isolated and injected with 5-20 ng in 50 nL each of the appropriate subunit cRNAs. Recordings were made 2 to 15 days after injection.
Electrophysiology experiments were conducted using OpusXpress 6000A (Axon instruments, Union City, Calif.), or manual oocyte two-electrode voltage-clamp systems as previously reported (Stokes et al., 2004). […]
Each oocyte received two initial control applications of ACh, then a nicotine or analog application, and then a follow-up control application of ACh. […] Responses to each nicotine or analog application were calculated relative to the preceding ACh control responses in order to normalize the data, compensating for the varying levels of channel expression among the oocytes. […] Responses for α7 receptors were calculated as net charge (Papke et al., 2002). For subtypes other than α7, responses were calculated from the peak current amplitudes. Means and standard errors (SEM) were calculated from the normalized responses of at least four oocytes for each drug concentration. […]
For concentration-response relations, data derived from net-charge analyses were plotted using Kaleidagraph 3.0.2 (Abelbeck Software; Reading, Pa.) and curves were generated from the Hill equation […]

[2] = test system: NIC-evoked [3H]DA release from rat striatal slices; assay: Nicotine-evoked [3H]dopamine release assay, superfused rat striatal slices; format: cell-based; settings: 100 nM analog superfused 60 minutes prior to NIC (10 μM), percent of that in the absence of analog
Description: Rat striatal slices (500 μm thickness, 6-8 mg wet weight) were incubated for 30 minutes in Krebs buffer (118 mM NaCl, 4.7 mM KCl, 1.2 mM MgCl2, 1.0 mM NaH2PO4, 1.3 mM CaCl2, 11.1 mM glucose, 25 mM NaHCO3, 0.11 mM L-ascorbic acid and 0.004 mM disodium EDTA; pH 7.4, and saturated with 95% O2/5% CO2) in a metabolic shaker at 34° C. Slices were rinsed with 15 mL of fresh buffer and incubated for an additional 30 minutes in fresh buffer containing 0.1 μM [^3H]dopamine (DA; 6 slices/3 mL). Subsequently, slices were rinsed with 15 mL of fresh buffer and transferred to a glass superfusion chamber. Slices were superfused (1.0 mL/min) for 60 minutes with Krebs buffer containing nomifensine (10 μM) and pargyline (10 μM) and maintained at 34° C., pH 7.4 with continual aeration (95% O2/5% CO2). Two five minute samples (5 mL each) were collected to determine basal outflow of [^3H]DA. Analogs were added to the superfusion buffer after the collection of the second sample and remained in the buffer until 12 consecutive five minute samples were collected. Subsequently, S-(−)-nicotine (10 μM) was added to the buffer and an additional 12 consecutive five minute samples were collected. At the end of the experiment, each slice was solubilized and the [^3H] content of the tissue determined.
Radioactivity in the superfusate and tissue samples were determined by liquid scintillation spectroscopy. Fractional release for tritium collected in each sample was divided by the total tritium present at the time of sample collection and was expressed as a percentage of total tritium. Basal [^3H] outflow was calculated from the average of the tritium collected in the two five-minute samples just before addition of the analog. The sum of the increase in collected tritium resulting from either exposure to the test compound or exposure to S-(−)-nicotine in the absence cod presence of the test compound equaled total [^3H] overflow. [^3H] Overflow was calculated by subtracting the [^3H] outflow during an equivalent period of prestimulation from the values in samples collected during and after drug exposure. Inasmuch as the radiolabelled compounds were not separated and identified, the tritium in the superfusate is referred to as either [^3H] outflow or [^3H] overflow, rather than [^3H]DA. [^3H] Overflow primarily represents [^3H]DA in the presence of nomifesine and pargyline in the superfusion buffer. […]
Analogs were also evaluated for their ability to inhibit NIC evoked [^3H]DA release. In these experiments, the striatal slices were superfused for 60 minutes with 100 nM concentration of the analogs prior to NIC (10 μM) exposure. Antagonist activity was evaluated by comparing the NIC-evoked [^3H] overflow in the absence and presence of the analogs. The relative order of potency of the analogs for inhibition of NIC-evoked [^3H]DA release from rat striatal slices is illustrated in Table 1.
Data are % inhibition at 100 nM concentration of analog for at least 1-3 independent experiments. Specific binding in the [^3H]NIC binding assay is calculated at the difference between the total binding of [^3H]NIC and nonspecific binding in the presence of 10 μM cold nicotine. Specific binding for the [^3H]MLA binding assay is calculated as the difference between the total binding of 2.5 nM [^3H]MLA to the receptors alone and its nonspecific binding in the presence of 1 μM cold MLA. Analog-induced inhibition of nicotine-evoked [^3H]DA release is calculated as a percent of that in the absence of analog.

Compound	inhibition of ACh response at α7 nicotinic receptor subtype (concentration-response, in words) [1]	inhibition at 0.1 µM [2]
CN1CCC[C@H]1c1ccc[n+](CCCC#Cc2cc(C#CCCC[n+]3cccc([C@@H]4CCCN4C)c3)cc(C#CCCC[n+]3cccc([C@@H]4CCCN4C)c3)c2)c1 [GZ551B, 1,3,5-tris-{5-[3-(1-methyl-2-S-pyrrolidinyl)pyridinium]-pent-1-ynyl}-benzene tribromide]	most potent as an inhibitor of the α7 nicotinic receptor subtype, but was not selective	63%
CCCCc1ccc[n+](CCCC#Cc2cc(C#CCCC[n+]3cccc(CCCC)c3)cc(C#CCCC[n+]3cccc(CCCC)c3)c2)c1 [GZ551A, 1,3,5-tris-[5-(3-butyl-pyridinium)-pent-1-ynyl]-benzene tribromide]	potent and selective inhibitor	52%
CN1CCC[C@H]1c1ccc[n+](CCCCCc2cc(CCCCC[n+]3cccc([C@@H]4CCCN4C)c3)cc(CCCCC[n+]3cccc([C@@H]4CCCN4C)c3)c2)c1 [GZ558C, 1,3,5-tris-{5-[3-(1-methyl-2-S-pyrrolidinyl)pyridinium]-pentyl}-benzene tribromide]	potent and selective inhibitor	35%
